Data as given in patent US5733934A, “Antiarrythmic and cardioprotective substituted indenoylguanidines” (priority 1996, dated 1998).

How the values were obtained:
anaesthetized rat = assay: Myocardial Infarction in the Anaesthetized Rat; format: in vivo; conditions: intravenous 5 minutes before ligation; 1 h ligation, 1 h reperfusion
Method: Myocardial Infarction in the Anaesthetized Rat:
Rats were prepared as in earlier experiments. Compounds were administered intravenously 5 minutes before ligation. The experiment consisted of one hour of ligation followed by one hour of reperfusion. Myocardial infarction was assessed by double dye technique using Evans blue and 2,3,5-Triphenyltetrazolium to identify area at risk and area of infarction respectively. Extent of infarction was expressed as a percent of area at risk. (Simpson et al, 1987, Circulation Research, 60, 666-673)

Na^+ /H^+ -exchanger = target: T1, Na^+ /H^+ -exchanger (Oryctolagus cuniculus, UniProt P23791); assay: Sodium-Proton exchange inhibition in rabbit erythrocytes; format: cell-based, rabbit (Albino, New Zealand strain); conditions: 37° C., 1 hour, hyperosmolar sucrose buffer, 0.1 mM Ouabain, read-out: IC50 (concentration necessary to reduce the erythrocyte sodium content to 50%)
T1 construct: Na^+ /H^+ -exchanger activity in the erythrocytes; endogenous in cells; host or cells: erythrocytes (whole blood from the ear vein) of cholesterol-fed New Zealand albino rabbits
T1 sequence (P23791 whole entry): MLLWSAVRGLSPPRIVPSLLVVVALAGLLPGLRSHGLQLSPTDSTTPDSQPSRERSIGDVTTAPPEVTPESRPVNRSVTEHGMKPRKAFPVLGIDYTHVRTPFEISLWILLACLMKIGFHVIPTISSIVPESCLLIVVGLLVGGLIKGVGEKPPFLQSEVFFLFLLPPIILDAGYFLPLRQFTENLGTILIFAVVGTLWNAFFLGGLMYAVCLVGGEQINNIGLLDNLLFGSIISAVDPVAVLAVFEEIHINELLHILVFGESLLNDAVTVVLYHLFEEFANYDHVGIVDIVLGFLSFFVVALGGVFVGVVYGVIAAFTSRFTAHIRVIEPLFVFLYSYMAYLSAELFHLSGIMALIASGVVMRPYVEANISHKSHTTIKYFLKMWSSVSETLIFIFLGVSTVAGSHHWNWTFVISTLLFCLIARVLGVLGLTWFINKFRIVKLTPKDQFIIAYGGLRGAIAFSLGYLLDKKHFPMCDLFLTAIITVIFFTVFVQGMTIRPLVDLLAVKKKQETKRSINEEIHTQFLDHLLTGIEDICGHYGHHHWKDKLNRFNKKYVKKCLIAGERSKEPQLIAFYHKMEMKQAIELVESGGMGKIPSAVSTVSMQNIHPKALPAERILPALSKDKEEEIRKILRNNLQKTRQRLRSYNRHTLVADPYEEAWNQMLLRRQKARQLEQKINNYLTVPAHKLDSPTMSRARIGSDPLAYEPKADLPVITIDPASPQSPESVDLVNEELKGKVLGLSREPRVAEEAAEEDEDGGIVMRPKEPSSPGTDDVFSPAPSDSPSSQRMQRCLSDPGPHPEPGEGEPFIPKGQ
Excerpt: Sodium-Proton exchange inhibition in rabbit erythrocytes:
Albino rabbits of New Zealand strain were fed with 2% cholesterol diet for six weeks prior to collecting blood for the determination of Na^+ /H^+ -exchanger activity in the erythrocytes. Eypercholesteremia has been reported to increase the exchanger activity in the rabbit erythrocytes (Scholz et al, 1990; Arteriosklerose--Neue Aspekte aus Zellbiologie und Molekulargenetik, Epidemiologie und Klinik; Assmann, G, et al, Eds, Braunschweig, Wiesbaden, Vieweg, 296-302). Blood samples were collected from the ear vein and hematocrit was determined. About 200 μl of blood was incubated at 37° C. for 1 hour with hyperosmolar sucrose buffer containing 0.1 mM Ouabain in the presence and absence of test sample. After the incubation period, the reaction was stopped by addition of 5 ml of ice cold MgCl2 solution containing 0.1 mM Ouabain. The erythrocytes were washed three times with 5 ml quantities of MgCl2 solution. They were hemolyzed by the addition of 4 ml of distilled water and the sodium content of the hemolyzed was determined by flame-photometry. The activity of the test compound was determined by its ability to reduce the sodium content of the erythrocyte and was expressed as IC50 which is the concentration necessary to reduce the erythrocyte sodium content to 50%.

anaesthetized rats = assay: Ischemia-Induced Arrhythmias in Anaesthetized Rats; format: in vivo, rat (Male Charles Foster); set-up: key to VF Percent inhibition: NP: No protection
Method: Ischemia-Induced Arrhythmias in Anaesthetized Rats:
Male Charles Foster rats (220-260 g) were anaesthetized with Pentobarbitone sodium. Animals were artificially ventilated. Blood pressure was recorded through carotid artery. Thoracotomy was performed to expose the heart. Left Anterior Descending (LAD) coronary artery was identified. Test compound was administered either orally […] before anaesthesia (40 minutes before LAD artery ligation) or intravenously (5 minutes before LAD artery ligation). Resulting arrhythmias during the 15 minute period of ligation were recorded and analyzed according to Lambeth Convention (Walker M. J. A, et al, 1988, Cardiovascular Research, 22, 447-455). Antiarrhythmic effect of the test compound was expressed as dose dependent inhibition of the duration of Ventricular Tachycardia (VT) and Ventricular Fibrillation (VF).

isolated rat heart = assay: Reperfusion Induced Arrhythmias in the isolated rat heart; set-up: species or system rat (Charles Foster); conditions: LAD ligation 15 min, reperfusion 30 min, read-out: IC50 for VFD (50% reduction of duration of ventricular fibrillation)
Method: Reperfusion Induced Arrhythmias in the isolated rat heart:
[…] Charles Foster rats of either sex (250-300 g) were sacrificed by stunning and exsanguination. Hearts were quickly removed and perfused according to Langendorffs method. Different concentrations of test compound were added into the perfusing medium. After 20 min of the equilibration period Left Anterior Descending (LAD) coronary artery was ligated. 15 minutes later the ligature was removed and reperfusion was allowed for next 30 minutes. During reperfusion period ECG was monitored. Duration of Ventricular Fibrillation (VFD) was the main parameter of assessment. Anti-arrhythmic activity was examined as the concentration of the test compound required to cause a 50% reduction of the VFD.

rat hearts = conditions: isolated rat hearts; Eur. Heart J. 9 {supplement 1}: 167 (1988); cited from earlier work
[1] = tested on: disturbances in cardiac rhythm; conditions: Circulation 79, 1257-1263 (1989); cited from earlier work

CC1=C(C(=O)N=C(N)N)Cc2ccccc21 [Compound 2]
Protection against infarction (anaesthetized rat): 17%
IC50 (Na^+ /H^+ -exchanger): 90 nM
VF Percent inhibition (anaesthetized rats; Intravenous, 0.1 mg/kg): 100%
VT Percent inhibition (anaesthetized rats; Intravenous, 0.1 mg/kg): 57 ± 17%
VF Percent inhibition (anaesthetized rats; Intravenous, 0.3 mg/kg): 100%
VT Percent inhibition (anaesthetized rats; Intravenous, 0.3 mg/kg): 90 ± 3%
VF Percent inhibition (anaesthetized rats; Intravenous, 1.0 mg/kg): 100%
VT Percent inhibition (anaesthetized rats; Intravenous, 1.0 mg/kg): 98 ± 1%
VF Percent inhibition (anaesthetized rats; Oral, 1 mg/kg): 68%
VT Percent inhibition (anaesthetized rats; Oral, 1 mg/kg): 26 ± 0%
VF Percent inhibition (anaesthetized rats; Oral, 3 mg/kg): 93%
VT Percent inhibition (anaesthetized rats; Oral, 3 mg/kg): 31 ± 21%
VF Percent inhibition (anaesthetized rats; Oral, 10 mg/kg): 00%
VT Percent inhibition (anaesthetized rats; Oral, 10 mg/kg): 73 ± 8%
IC50 (isolated rat heart): 25 nM

CC1=C(C(=O)N=C(N)N)Cc2c(Cl)cccc21 [Compound 10]
Protection against infarction (anaesthetized rat): 68%
IC50 (Na^+ /H^+ -exchanger): 18 nM
VF Percent inhibition (anaesthetized rats; Intravenous, 0.1 mg/kg): 100%
VT Percent inhibition (anaesthetized rats; Intravenous, 0.1 mg/kg): 20 ± 24%
VF Percent inhibition (anaesthetized rats; Intravenous, 0.3 mg/kg): 100%
VT Percent inhibition (anaesthetized rats; Intravenous, 0.3 mg/kg): 81 ± 8%
VF Percent inhibition (anaesthetized rats; Intravenous, 1.0 mg/kg): 100%
VT Percent inhibition (anaesthetized rats; Intravenous, 1.0 mg/kg): 97 ± 1%
VF Percent inhibition (anaesthetized rats; Oral, 0.1 mg/kg): NP
VT Percent inhibition (anaesthetized rats; Oral, 0.1 mg/kg): 32 ± 12%
VF Percent inhibition (anaesthetized rats; Oral, 0.3 mg/kg): 84%
VT Percent inhibition (anaesthetized rats; Oral, 0.3 mg/kg): 69 ± 11%
VF Percent inhibition (anaesthetized rats; Oral, 1 mg/kg): 100%
VT Percent inhibition (anaesthetized rats; Oral, 1 mg/kg): 67 ± 11%
IC50 (isolated rat heart): 17 nM

N=C(N)NC(=O)c1nc(Cl)c(N)nc1N [amiloride]
suppression of artificially induced ventricular fibrillation (rat hearts): suppress an artificially induced ventricular fibrillation completely
antiarrhythmic effect [1]: only slight

CCN(c1nc(N)c(C(=O)N=C(N)N)nc1Cl)C(C)C [ethylisopropylamiloride]
suppression of artificially induced ventricular fibrillation (rat hearts): even more potent than amiloride
